According to publication PMC8044046 (European journal of medicinal chemistry, 2021):

How the values were obtained:
Test in all cases: CellTiter Glo cell viability
Assay type in all cases: cell-based
[1] = system: Calu-3 (HER2+) lung cancer cell line; details: read-out: IC50 (μM) Calu-3 (HER2+); antiproliferative activity, 72 h, N=3, ±S.E
[2] = system: BT-474 (HER2+) breast cancer cell line; details: read-out: IC50 (μM) BT-474 (HER2+); antiproliferative activity, 72 h, N=3, ±S.E
[3] = system: A549 (HER2+) NSCLC cell line; details: read-out: IC50 (μM) A549 (HER2+); antiproliferative activity, 72 h, N=3, ±S.E
MCF-7 (HER2−) cell line = details: read-out: IC50 (μM) MCF-7 (HER2−); antiproliferative activity, 72 h, N=3

Measured: IC50

H2N-K(S-(3-amino-3(biphenyl)propionic acid)F-OH [Control]
> 100 µM: all assays above
